Test results reported in patent US7553972B2, “Benzamide inhibitors of the P2X7 receptor” (Pfizer, Inc., priority 2003, dated 2009).

The compounds below were run against T1, P2X7 receptor (Homo sapiens, UniProt Q99572) (assay: Inhibition of ATP-stimulated IL-1β release from LPS-activated blood monocytes (P2X7 antagonist activity, ELISA readout)). Conditions: not given.
T1 construct: endogenous in cells
T1 sequence (Q99572 1-595): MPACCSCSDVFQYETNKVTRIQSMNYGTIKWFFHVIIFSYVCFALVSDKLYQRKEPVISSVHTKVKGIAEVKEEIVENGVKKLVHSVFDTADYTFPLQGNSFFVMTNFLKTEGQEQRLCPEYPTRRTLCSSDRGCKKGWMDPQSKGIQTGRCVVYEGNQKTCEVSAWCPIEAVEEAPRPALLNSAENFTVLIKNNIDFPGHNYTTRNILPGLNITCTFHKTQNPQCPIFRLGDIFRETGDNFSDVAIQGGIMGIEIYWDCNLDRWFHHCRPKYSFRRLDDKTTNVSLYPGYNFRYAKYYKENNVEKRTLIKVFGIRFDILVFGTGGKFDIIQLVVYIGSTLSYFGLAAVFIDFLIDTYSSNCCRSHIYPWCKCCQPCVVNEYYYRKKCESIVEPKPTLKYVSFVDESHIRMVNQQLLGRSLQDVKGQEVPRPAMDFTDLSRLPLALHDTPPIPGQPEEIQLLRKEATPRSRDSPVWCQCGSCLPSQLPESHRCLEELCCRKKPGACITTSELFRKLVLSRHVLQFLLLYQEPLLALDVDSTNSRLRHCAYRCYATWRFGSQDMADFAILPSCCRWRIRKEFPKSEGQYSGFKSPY
Type: cell-based
Method: In like manner, the compounds of the invention can be tested for antagonist activity at the P2X7 receptor using the cytokine IL-1β as the readout. Blood collected from normal volunteers in the presence of heparin is fractionated using lymphocyte separation medium obtained from Organon Technica (Westchester, Pa.). […] The resulting cell pellet was suspended in 10 ml of Maintenance Medium and a cell count was performed. In an average experiment, 2×10^5 mononuclear cells are seeded into each well of 96-well plates in a total volume of 0.1 ml. Monocytes are allowed to adhere for 2 hours, after which the supernatants are discarded and the attached cells are rinsed twice and then incubated in Maintenance Medium overnight at 37° C. in a 5% CO2 environment.
(§1) The cultured monocytes can be activated with 10 ng/ml LPS (E. coli serotype 055:B5; Sigma Chemicals, St. Louis, Mo.). […] ATP then is introduced (from a 100 mM stock solution, pH 7) to achieve a final concentration of 2 mM and the plate is incubated at 37° C. for an additional 3 hours. Media were harvested and clarified by centrifugation, and their IL-1[…] content was determined by ELISA (R&D Systems; Minneapolis, Minn.).
Blood was collected from normal volunteers in the presence of heparin, and was fractionated using lymphocyte separation medium obtained from Organon Technica (Westchester, Pa.). […] The resulting cell pellet was suspended in 10 ml of Maintenance Medium and a cell count was performed. Approximately, 2×10^5 mononuclear cells were seeded into each well of 96-well plates in a total volume of 0.1 ml. Monocytes were allowed to adhere for 2 hours, after which the supernatants were discarded and the attached cells were rinsed twice and then incubated in Maintenance Medium overnight at 37° C. in a 5% CO2 environment.
as §1, with “monocytes were” for “monocytes can be”, “then was” for “then is”, “plate was” for “plate is”, “their IL-1β” for “their IL-1[…]”

Cc1nc(-c2ccc(Cl)c(C(=O)NCC3(O)CCCCCC3)c2)cs1 [Example 59, 2-Chloro-N-(1-hydroxy-cycloheptylmethyl)-5-(2-methyl-thiazol-4-yl)-benzamide] was tested, and the IC50 was 280 nM.

Same assay, conditions: monocytes from normal volunteers, 10 ng/ml LPS 2 h, compound 30 min, 2 mM ATP 3 h, IL-1β by ELISA, triplicate wells; read-out: IC50 (inhibit 50% of the stimulation of the release of IL-1β from monocytes by ATP)

Point of comparison: O=C(NCC1(O)CCCCCC1)c1cc(-c2cc(CCO)on2)ccc1Cl [Example 58, 2-Chloro-N-(1-hydroxy-cycloheptylmethyl)-5-[5-(2-hydroxy-ethyl)-isoxazol-3-yl]-benzamide], IC50 430 nM. Against it:
- Cc1cc(-c2ccc(Cl)c(C(=O)NCC3(O)CCCCCC3)c2)nn1CC(=O)N1C[C@H](O)[C@@H](O)C1 [Example 53, 2-Chloro-5-{1-[2-(3,4-dihydroxy-pyrrolidin-1-yl)-2-oxo-ethyl]-5-methyl-1H-pyrazol-3-yl}-N-(1-hydroxy-cycloheptylmethyl)-benzamide] — 28-fold lower, 15.5 nM
- Cc1cc(-c2ccc(Cl)c(C(=O)NCC3(O)CCCCCC3)c2)nn1C[C@@H](O)CN [Example 54, 5-[1-(3-Amino-2-hydroxy-propyl)-5-methyl-1H-pyrazol-3-yl]-2-chloro-N-(1-hydroxy-cycloheptylmethyl)-benzamide] — 86-fold lower, 5 nM
- Cc1cc(-c2ccc(Cl)c(C(=O)NCC3(O)CCCCCC3)c2)n(C[C@@H](O)CN)n1 [Example 55, 5-[2-(3-Amino-2-hydroxy-propyl)-5-methyl-2H-pyrazol-3-yl]-2-chloro-N-(1-hydroxy-cycloheptylmethyl)-benzamide] — within 1.5-fold, 365 nM
- O=C(NCC1(O)CCCCCC1)c1cc(-c2cn[nH]n2)ccc1Cl [Example 56, 2-Chloro-N-(1-hydroxy-cycloheptylmethyl)-5-(2H-[1,2,3]triazol-4-yl)-benzamide] — within 1.5-fold, 480 nM
- O=C(NCC1(O)CCCCCC1)c1cc(-c2cn(CC(O)CF)cn2)ccc1Cl (stereo not shown) [Example 57, 2-Chloro-5-[1-(3-fluoro-2-hydroxy-propyl)-1H-imidazol-4-yl]-N-(1-hydroxy-cycloheptylmethyl)-benzamide] — higher, > 1000 nM
